pKi: −log10 of the molar value.
Columns and labels:
[1] = tested on: 45 receptors, transporters and ion channels; assay: PDSP comprehensive off-target screen; format: binding
5HT2B = 5HT2B (Homo sapiens, UniProt P41595); assay: PDSP off-target binding; conditions: read-out: Ki, 5HT2B
H3 = H3 (Homo sapiens, UniProt Q9Y5N1); assay: PDSP off-target binding; conditions: read-out: Ki, H3
hP2Y14R = target: T1, hP2Y14R (Homo sapiens, UniProt Q15391); format: binding; conditions: for fold less potent than 7 in P2Y14R binding: primary amino sulfonamides with two and four methylenes vs three
T1 sequence (Q15391 1-338): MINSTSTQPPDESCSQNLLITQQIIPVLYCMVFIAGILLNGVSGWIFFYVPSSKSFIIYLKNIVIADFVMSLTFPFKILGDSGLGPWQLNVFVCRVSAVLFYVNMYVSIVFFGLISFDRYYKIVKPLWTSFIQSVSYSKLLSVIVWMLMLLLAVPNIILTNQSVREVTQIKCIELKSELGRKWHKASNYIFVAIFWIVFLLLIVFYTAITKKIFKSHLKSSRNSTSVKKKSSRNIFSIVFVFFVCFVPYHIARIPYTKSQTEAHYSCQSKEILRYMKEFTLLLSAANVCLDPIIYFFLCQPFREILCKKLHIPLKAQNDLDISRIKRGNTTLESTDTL

Plasma stability = conditions: at 120 min; plasma of three species: human, rat and mouse
CACO-2 cell = CACO-2 cell permeability; conditions: CACO-2 cells
[2] = In vivo pharmacokinetics in rat; conditions: male Sprague Dawley rat, oral administration 1–10 mg/kg
[3] = Stability in simulated gastric and intestinal fluids; conditions: after 240 min
[4] = carboxylate replaced by tetrazole

5HT2B, sequence (P41595 whole entry, species assumed): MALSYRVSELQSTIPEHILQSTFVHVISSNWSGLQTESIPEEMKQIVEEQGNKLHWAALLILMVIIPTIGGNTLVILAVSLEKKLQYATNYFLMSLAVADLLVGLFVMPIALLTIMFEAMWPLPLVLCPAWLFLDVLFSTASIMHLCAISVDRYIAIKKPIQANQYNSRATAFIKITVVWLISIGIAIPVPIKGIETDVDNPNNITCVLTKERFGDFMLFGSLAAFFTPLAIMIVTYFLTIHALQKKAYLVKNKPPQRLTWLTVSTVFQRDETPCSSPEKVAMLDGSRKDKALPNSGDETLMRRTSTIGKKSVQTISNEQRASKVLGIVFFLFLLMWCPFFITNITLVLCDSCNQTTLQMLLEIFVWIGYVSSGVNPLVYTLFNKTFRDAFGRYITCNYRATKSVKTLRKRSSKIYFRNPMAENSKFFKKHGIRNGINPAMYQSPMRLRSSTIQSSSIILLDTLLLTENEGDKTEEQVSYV
H3, sequence (Q9Y5N1 whole entry): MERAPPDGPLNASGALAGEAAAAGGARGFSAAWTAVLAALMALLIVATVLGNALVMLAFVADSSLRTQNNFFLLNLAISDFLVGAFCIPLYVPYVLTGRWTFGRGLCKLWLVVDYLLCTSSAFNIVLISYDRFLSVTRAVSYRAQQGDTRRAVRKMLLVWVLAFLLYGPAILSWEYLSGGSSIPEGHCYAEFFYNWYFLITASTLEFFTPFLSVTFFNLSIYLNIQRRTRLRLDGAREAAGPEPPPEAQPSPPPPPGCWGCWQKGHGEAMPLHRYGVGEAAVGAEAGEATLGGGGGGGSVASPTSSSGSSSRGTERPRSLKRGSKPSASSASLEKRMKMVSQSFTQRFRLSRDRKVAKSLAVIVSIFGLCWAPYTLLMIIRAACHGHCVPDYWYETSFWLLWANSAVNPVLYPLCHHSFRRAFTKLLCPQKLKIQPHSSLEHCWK

O=C(O)c1cc(O)c2ccc(-c3ccc(C(F)(F)F)cc3)cc2c1 [37d]
Off-target interactions in the comprehensive PDSP screen [1]: bound only to NET

CC(C)(C)OC(=O)NCCCCCCn1cc(CCCCN2CCC(c3ccc(-c4cc(C(=O)O)cc5cc(-c6ccc(C(F)(F)F)cc6)ccc45)cc3)CC2)nn1 [compound 3c, 4-(4-(1-(4-(1-(6-((tert-Butoxycarbonyl)amino)hexyl)-1H-1,2,3-triazol-4-yl)butyl)piperidm-4-yl)phenyl)-7-(4-(trifluoromethyl)phenyl)-2-naphthoic acid]
pKi (5HT2B): 5.56
pKi (H3): 5.56

NCCCCCCn1cc(CCCCN2CCC(c3ccc(-c4cc(C(=O)O)cc5cc(-c6ccc(C(F)(F)F)cc6)ccc45)cc3)CC2)nn1 [compound 3d, 4-(4-(1-(4-(1-(6-Ammohexyl)-1H-1,2,3-triazol-4-yl)butyl)piperidm-4-yl)phenyl)-7-(4-(trifluoromethyl)phenyl)-2-naphthoic acid]
Off-target interactions in the comprehensive PDSP screen [1]: displayed extensive off-target interactions with biogenic amine receptors

NCCNS(=O)(=O)c1ccc(-c2cc(C(=O)O)cc(-n3cc(-c4ccc(C(F)(F)F)cc4)nn3)c2)s1 [compound 5, 3-(5-(N-(2-Aminoethyl)sulfamoyl)thiophen-2-yl)-5-(4-(4-(trifluoromethyl)phenyl)-1H-1,2,3-triazol-1-yl)benzoic acid]
fold less potent than 7 in P2Y14R binding (hP2Y14R): 3 fold

NCCCNS(=O)(=O)c1ccc(-c2cc(C(=O)O)cc(-n3cc(-c4ccc(C(F)(F)F)cc4)nn3)c2)s1 [compound 7, 3-(5-(N-(3-Ammopropyl)sulfamoyl)thiophen-2-yl)-5-(4-(4-(trifluoromethyl)phenyl)-1H-1,2,3-triazol-1-yl)benzoic acid]
fold more potent than its Boc derivative 6 (hP2Y14R): 12 fold

NCCCCNS(=O)(=O)c1ccc(-c2cc(C(=O)O)cc(-n3cc(-c4ccc(C(F)(F)F)cc4)nn3)c2)s1 [compound 9, 3-(5-(N-(4-Ammobutyl)sulfamoyl)thiophen-2-yl)-5-(4-(4-(trifluoromethyl)phenyl)-1H-1,2,3-triazol-1-yl)benzoic acid]
fold less potent than 7 in P2Y14R binding (hP2Y14R): 3 fold

O=C(O)c1cc(-c2ccc(S(=O)(=O)NCCCCO)s2)cc(-n2cc(-c3ccc(C(F)(F)F)cc3)nn2)c1 [compound 10, 3-(5-(N-(4-Hydroxybutyl)sulfamoyl)thiophen-2-yl)-5-(4-(4-(trifluoromethyl)phenyl)-1H-1,2,3-triazol-1-yl)benzoic acid]
fold less potent than primary aminobutyl congener 9 (hP2Y14R): 4 fold

CCN(CC)CC.NS(=O)(=O)c1ccc(-c2cc(C(=O)O)cc(-n3cc(-c4ccc(C(F)(F)F)cc4)nn3)c2)cc1 [compound 16, 4'-Sulfamoyl-5-(4-(4-(trifluoromethyl)phenyl)-1H-1,2,3-triazol-1-yl)-[1,1'-biphenyl]-3-carboxylic acid]
fold more potent than thienyl sulfonamide 13 (hP2Y14R): 10 fold

CC(C)(C)OC(=O)N1CCN(Cc2ccc(-c3cc(C(=O)O)cc(-n4cc(-c5ccc(C(F)(F)F)cc5)nn4)c3)s2)CC1 [compound 17, 3-(5-((4-(tert-Butoxycarbonyl)piperazin-1-yl)methyl)thiophen-2-yl)-5-(4-(4-(trifluoromethyl)phenyl)-1H-1,2,3-triazol-1-yl)benzoic acid]
fold weaker than methylpiperazine 18 (hP2Y14R; Boc derivative vs free amine): 34 fold

NCCCNC(=O)c1ccc(-c2cc(C(=O)O)cc(-n3cc(-c4ccc(C(F)(F)F)cc4)nn3)c2)s1 [compound 20, 3-(5-((3-Aminopropyl)carbamoyl)thiophen-2-yl)-5-(4-(4-(trifluoromethyl)phenyl)-1H-1,2,3-triazol-1-yl)benzoic acid]
Off-target interactions in the comprehensive PDSP screen [1]: did not display extensive off-target interactions with biogenic amine receptors

O=C(O)c1cc(-c2ccc(C(=O)N3CCNCC3)s2)cc(-n2cc(-c3ccc(C(F)(F)F)cc3)nn2)c1 [compound 22, 3-(5-(Piperazine-1-carbonyl)thiophen-2-yl)-5-(4-(4-(trifluoromethyl)phenyl)-1H-1,2,3-triazol-1-yl)benzoic acid]
fold less potent than thienyl sulfonamide 12 (hP2Y14R; cyclic amines): 2 fold

CCN(CC)CC.NC(=O)c1ccc(-c2cc(C(=O)O)cc(-n3cc(-c4ccc(C(F)(F)F)cc4)nn3)c2)o1 [compound 24, 3-(5-Carbamoylfuran-2-yl)-5-(4-(4-(trifluoromethyl)phenyl)-1H-1,2,3-triazol-1-yl)benzoic acid]
fold less potent than carboxamide 30 (hP2Y14R): 10 fold

CCN(CC)CC.NC(=O)c1ccc(-c2cc(C(=O)O)cc(-n3cc(-c4ccc(C(F)(F)F)cc4)nn3)c2)cc1 [compound 30, 4'-Carbamoyl-5-(4-(4-(trifluoromethyl)phenyl)-lH-l,2,3-triazol-l-yl)-[l,l'-biphenyl]-3-carboxylic acid]
Off-target interactions in the comprehensive PDSP screen [1]: did not bind appreciably to any other sites
remaining in plasma (Plasma stability): 94 – 100 % remaining
Papp, apical to basal (CACO-2 cell): 0.0 X 10^−6 cm/sec
oral bioavailability [2]: lack of bioavailability
remaining in simulated gastric fluid [3]: 100 % remaining
remaining in simulated intestinal fluid [3]: 100 % remaining

FC(F)(F)c1ccc(-c2cn(-c3cc(-c4ccc(C5CCNCC5)cc4)cc(-c4nnn[nH]4)c3)nn2)cc1 [compound 35, 4-(3'-(1H-Tetrazol-5-yl)-5'-(4-(4-(trifluoromethyl)phenyl)-1H-1,2,3-triazol-1-yl)-[1,1'-biphenyl]-4-yl)piperidine]
fold reduction of affinity relative to 2a (hP2Y14R; [4]): 30 fold

NCCCNC(=O)c1ccc(-c2cc(-c3nnn[nH]3)cc(-n3cc(-c4ccc(C(F)(F)F)cc4)nn3)c2)s1 [compound 36a, 5-(3-(1#-Tetrazol-5-yl)-5-(4-(4-(trifluoromethyl)phenyl)-1H-1,2,3-triazol-1-yl)phenyl)-N-(3-aminopropyl)thiophene-2-carboxamide]
fold reduction of affinity relative to 20 (hP2Y14R): 7 fold

NC(=O)c1ccc(-c2cc(-c3nnn[nH]3)cc(-n3cc(-c4ccc(C(F)(F)F)cc4)nn3)c2)cc1 [compound 36b, 3'-(1H-Tetrazol-5-yl)-5'-(4-(4-(trifluoromethyl)phenyl)-1H-1,2,3-triazol-1-yl)-[1,1'-biphenyl]-4-carboxamide]
fold less potent than carboxamide 30 (hP2Y14R): 9 fold

CC(C)(C)NC(=O)c1ccc(-c2cc(-c3nnn[nH]3)cc(-n3cc(-c4ccc(C(F)(F)F)cc4)nn3)c2)cc1 [compound 36c, N-(terf-Butyl)-3'-(1H-tetrazol-5-yl)-5'-(4-(4-(trifluoromethyl)phenyl)-1H-1,2,3-triazol-1-yl)-[1,1'-biphenyl]-4-carboxamide]
fold reduction of affinity relative to 34 (hP2Y14R; [4]): 3 fold

O=C(O)c1cc(O)cc(-n2cc(-c3ccc(C(F)(F)F)cc3)nn2)c1 [compound 37a]
fold less potent than carboxamide 30 (hP2Y14R): 60 fold

Source: article PMC6428052 (Journal of medicinal chemistry, 2018)
